Where no end group is shown, it is not given here.
How the values were obtained:
Jurkat T cells = experiment: exNef secretion, Mortalin scanning peptides (Figure 5A), Jurkat T cells; assay type: cell-based; details: 50 ng / 200 μL peptide, 250 ng Nef-GFP plasmid, 48 h, GFP fluorescence in media; SMRmut = 100; mean of three independent experiments
Procedure: To determine whether Mortalin-derived peptides can inhibit the secretion of extracellular Nef (exNef), Jurkat T cells were co-transfected with wild-type Nef-GFP and various scanning peptides derived from the substrate-binding domain of Mortalin (#56–#67). SMRwt and SMRmut peptides were included as positive and negative controls, respectively. After 48 h of incubation, GFP fluorescence in the culture media was measured as a proxy for exNef secretion.
(§1) Figure 5 Effects of Mortalin-derived peptides on inhibition of exNef and tumor exosome secretion. (A) Jurkat T cells were co-transfected with 250 ng of wild-type Nef-GFP plasmid and 50 ng of Mortalin-derived scanning peptides (#56–#67), including SMRwt and SMRmut as positive and negative controls. After 48 h, GFP fluorescence in culture media was measured to assess exNef secretion. Data represent mean ± SD from three independent experiments. Statistical significance was determined using a two-sample t-test assuming equal variances. (B) MDA-MB-231 cells were transfected with 50 ng of Mortalin-derived scanning peptides (#56–#67), including SMRwt and SMRmut controls. Cells were labeled with N-Rh-PE and incubated for 48 h. N-Rh-PE fluorescence in culture media was measured to assess exosome secretion. Data represent mean ± SD from three independent experiments. Statistical significance was determined using a two-sample t-test assuming equal variances. TEXT PRINTED IN THE PICTURE: (A) #56: Jurkat GFP (%): 117.84 (50 ng / 200 μL) | (A) #57: Jurkat GFP (%): 96.69 (50 ng / 200 μL) | (A) #58: Jurkat GFP (%): 91.89 (50 ng / 200 μL) | (A) #59: Jurkat GFP (%): 95.49 (50 ng / 200 μL) | (A) #60: Jurkat GFP (%): 98.25 (50 ng / 200 μL) | (A) #61: Jurkat GFP (%): 0.65 (50 ng / 200 μL) | (A) #62: Jurkat GFP (%): 0.51 (50 ng / 200 μL) | (A) #63: Jurkat GFP (%): 98.02 (50 ng / 200 μL) | (A) #64: Jurkat GFP (%): 95.37 (50 ng / 200 μL) | (A) #65: Jurkat GFP (%): 96.34 (50 ng / 200 μL) | (A) #66: Jurkat GFP (%): 92.28 (50 ng / 200 μL) | (A) #67: Jurkat GFP (%): 99.56 (50 ng / 200 μL) | (A) SMRwt: Jurkat GFP (%): 0.51 (50 ng / 200 μL) | (A) SMRmut: Jurkat GFP (%): 100 (50 ng / 200 μL) | (B) #56: MDA-MB-231 N-Rh-PE (%): 66.31 (50 ng / 200 μL) | (B) #57: MDA-MB-231 N-Rh-PE (%): 79.73 (50 ng / 200 μL) | (B) #58: MDA-MB-231 N-Rh-PE (%): 68.11 (50 ng / 200 μL) | (B) #59: MDA-MB-231 N-Rh-PE (%): 67.81 (50 ng / 200 μL) | (B) #60: MDA-MB-231 N-Rh-PE (%): 72.32 (50 ng / 200 μL) | (B) #61: MDA-MB-231 N-Rh-PE (%): 7.53 (50 ng / 200 μL) | (B) #62: MDA-MB-231 N-Rh-PE (%): 5.36 (50 ng / 200 μL) | (B) #63: MDA-MB-231 N-Rh-PE (%): 75.39 (50 ng / 200 μL) | (B) #64: MDA-MB-231 N-Rh-PE (%): 73.49 (50 ng / 200 μL) | (B) #65: MDA-MB-231 N-Rh-PE (%): 81.65 (50 ng / 200 μL) | (B) #66: MDA-MB-231 N-Rh-PE (%): 81.79 (50 ng / 200 μL) | (B) #67: MDA-MB-231 N-Rh-PE (%): 89.82 (50 ng / 200 μL) | (B) SMRwt: MDA-MB-231 N-Rh-PE (%): 6.11 (50 ng / 200 μL) | (B) SMRmut: MDA-MB-231 N-Rh-PE (%): 100 (50 ng / 200 μL)
To identify peptide sequences within Mortalin that modulate extracellular vesicle (EV) secretion, a panel of scanning peptides was synthesized and tested in Jurkat T cells. The peptides, listed in Table 1, were custom-synthesized with an average purity of 75% and used in transfection assays to evaluate their impact on EV release. Jurkat T cells (3 × 10^5) were co-transfected with 50 ng of individual Mortalin peptides […] 250 ng of wild-type Nef-GFP plasmid using Chariot™ transfection reagent. Transfection efficiency was confirmed by fluorescence microscopy after 48 h. EV secretion was assessed by measuring GFP fluorescence in the culture media, and statistical analysis was performed using unpaired two-factor t-tests (p < 0.05). Panel of Mortalin scanning peptides developed and tested for their effect EV secretion and Table S2. Mortalin Scanning Peptides Used in Transfection Assays, see the Supplementary Information. […]

MDA-MB-231 cells = experiment: Tumor exosome secretion, Mortalin scanning peptides (Figure 5B), MDA-MB-231; assay type: cell-based, human; details: 50 ng / 200 μL peptide, transfected, 48 h, N-Rh-PE fluorescence in media; SMRmut = 100; mean of three independent experiments
Procedure: as §1
To assess the effect of Mortalin-derived peptides on tumor exosome secretion, MDA-MB-231 breast cancer cells were transfected with the same panel of scanning peptides and labeled with N-Rh-PE to track exosome release. Following incubation, N-Rh-PE fluorescence in the culture media was measured as a proxy for extracellular exosome levels. SMRwt and SMRmut peptides were again used as controls. […] Statistical analysis confirmed significant differences: SMRmut vs. #61 (p < 7.20 × 10^−7), SMRmut vs. #62 (p < 5.70 × 10^−7), and SMRmut vs. SMRwt (p < 5.96 × 10^−7).

Nef protein = Nef protein (Human immunodeficiency virus type 1 group M subtype B, UniProt P03404); experiment: SPR binding of Mortalin peptides to immobilized Nef; parameters: species or system HIV-1; details: for kon: pH 7.4, read-out: ka (Nef)
Procedure: Figure 8 depicts the SPR results for Mortalin peptides binding to Nef. The Nef protein was immobilized as a ligand on the chip surface, and the peptides were used as analytes to flow into the buffer solution.
(§2) SPR experiments were conducted using a Biacore T200 instrument (Cytiva, Marlborough, MA, USA). CM5 sensor chips (Cytiva) were used to immobilize proteins and run subsequent binding assays at 25 °C. To investigate the direct binding of Nef and SMR peptides to Vimentin and Mortalin and SMR competition studies, both proteins were immobilized as ligands on the active flow cells (FCs) using standard amine coupling chemistry. One reference FC was prepared using the same surface chemistry, and no proteins were immobilized onto this reference FC. Vimentin was immobilized to a level of ~2500 RU to 7200 RU in the presence of 4 mM of HCl and Mortalin to a level of ~11,900 RU to 13,200 RU in the presence of 10 mM of sodium acetate buffer at pH 4.5. Analytes were then injected (Nef, SMR peptides, Mortalin peptides, and mixtures of […]). One 20 s pulse of 1:500 H3PO4 (H3PO4:ddH2O) was injected for surface regeneration. To investigate the direct binding of Mortalin peptides to Nef, Nef was immobilized as a ligand to ~450 RU using thiol coupling chemistry. A reference FC was created using a method similar to the one above. Mortalin peptides were then injected as analytes. One 20 s pulse of 1 M NaCl was injected for surface regeneration. HBS-P (10 mM Hepes, pH 7.4; 150 mM NaCl; 0.05% surfactant P20) was used as the immobilization running buffer during the immobilization of all ligands. HBS-P was also used to dilute analytes and as a running buffer during all analyte–ligand binding assays. SPR data used for analysis was both blank (signals due to HBS-P only) and reference-subtracted (signals corresponding to reference FCs). Sensorgrams recorded for kinetics analyses were fitted to a 1:1 binding model using the Biacore T200 evaluation software version 3.2.1. GraphPad Prism version 10.4.0 was used to plot all graphs.

MDA-MB-231 BC cells = experiment: Exosome secretion by N-Rh-PE (Figure 4A), MDA-MB-231; assay type: cell-based, human; details: 100 ng/mL peptide, 24 h, no transfection, N-Rh-PE fluorescence, three independent experiments
Procedure: (§3) Figure 4 Effects of SMR, Mortalin, and Vimentin peptides on tumor cell exosome secretion in MDA-MB-231 and MCF-7 breast cancer cells. MDA-MB-231 and MCF-7 BC cells (200 µL, 1 × 10^4 cells/mL) were seeded into a 96-well plate and treated with 100 ng/mL of either wild-type (wt) or mutant (mut) peptides of SMR, Mortalin, or Vimentin. Treatments were performed in RPMI-1640 medium without transfection, and cells were incubated at 37 °C for 24 h. The cells were then treated with 0.5 µM/mL of N-Rh-PE, incubated at 4 °C for 1 h, and washed with PBS. Fresh medium was also added. The cultures were incubated at 37 °C for an additional 24 h. N-Rh-PE refers to N-(Lissamine Rhodamine B sulfonyl) phosphatidyl-ethanolamine, a fluorescent lipid dye commonly used to label membranes and track vesicle trafficking. […] Exosome secretion was assessed by measuring the amount of N-Rh-PE, which corresponds to the number of exosomes released into the extracellular medium. Bar graphs show the relative exosome release level. Data represent the mean ± SD of three independent experiments.

MCF-7 BC cells = experiment: Exosome secretion by N-Rh-PE (Figure 4B), MCF-7; assay type: cell-based, human; details: 100 ng/mL peptide, 24 h, no transfection, N-Rh-PE fluorescence, three independent experiments
Procedure: as §3

[1] = target: T1, Recombinant Human GRP75/HSPA9B/Mortalin His Protein (Homo sapiens, UniProt P38646); experiment: biochemical; assay type: binding
T1 construct: His; purchased Novus Biologicals, LLC/R&D Systems NBC1-18380
Source text: (§4) We conducted SPR experiments to characterize and quantify the direct binding interactions between Nef and SMR peptides (the analytes) and the target proteins, Vimentin and Mortalin (the immobilized ligands). We did so by injecting the analytes at various concentrations over the chip surface with the immobilized ligands.
(§5) Recombinant Human Vimentin Protein, CF (catalog # 2105-VI-100), Recombinant Human GRP75/HSPA9B/Mortalin His Protein (catalog # NBC1-18380), and Recombinant Human HSPA8/HSC71/Hsc70 His Protein (Catalog # NBPI-30278) were purchased from Novus Biologicals, LLC/R&D Systems, Centennial, CO, USA. These proteins were used for SPR.
as §2

[2] = target: T2, Recombinant Human Vimentin Protein (Homo sapiens, UniProt P08670); experiment: biochemical; assay type: binding
T2 construct: purchased Novus Biologicals, LLC/R&D Systems 2105-VI-100
Source text: as §4, §5, §2

T1 sequence (P38646 47-679): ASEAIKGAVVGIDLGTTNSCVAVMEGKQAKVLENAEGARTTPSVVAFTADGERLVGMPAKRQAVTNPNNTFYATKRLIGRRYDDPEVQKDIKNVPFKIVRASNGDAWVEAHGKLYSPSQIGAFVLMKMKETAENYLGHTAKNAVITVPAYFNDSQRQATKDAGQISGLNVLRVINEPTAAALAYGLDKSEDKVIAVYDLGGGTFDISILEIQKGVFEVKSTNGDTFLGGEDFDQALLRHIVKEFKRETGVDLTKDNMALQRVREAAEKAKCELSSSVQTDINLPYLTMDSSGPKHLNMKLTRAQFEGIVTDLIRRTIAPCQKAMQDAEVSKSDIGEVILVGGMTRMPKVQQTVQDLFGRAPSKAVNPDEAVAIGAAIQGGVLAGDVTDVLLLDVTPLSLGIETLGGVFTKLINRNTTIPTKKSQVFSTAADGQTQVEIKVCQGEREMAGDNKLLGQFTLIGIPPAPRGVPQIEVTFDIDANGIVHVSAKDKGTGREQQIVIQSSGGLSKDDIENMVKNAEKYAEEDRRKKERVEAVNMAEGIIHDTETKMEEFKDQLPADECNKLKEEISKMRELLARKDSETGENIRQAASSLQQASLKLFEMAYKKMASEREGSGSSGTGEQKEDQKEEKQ
T2 sequence (P08670 whole entry): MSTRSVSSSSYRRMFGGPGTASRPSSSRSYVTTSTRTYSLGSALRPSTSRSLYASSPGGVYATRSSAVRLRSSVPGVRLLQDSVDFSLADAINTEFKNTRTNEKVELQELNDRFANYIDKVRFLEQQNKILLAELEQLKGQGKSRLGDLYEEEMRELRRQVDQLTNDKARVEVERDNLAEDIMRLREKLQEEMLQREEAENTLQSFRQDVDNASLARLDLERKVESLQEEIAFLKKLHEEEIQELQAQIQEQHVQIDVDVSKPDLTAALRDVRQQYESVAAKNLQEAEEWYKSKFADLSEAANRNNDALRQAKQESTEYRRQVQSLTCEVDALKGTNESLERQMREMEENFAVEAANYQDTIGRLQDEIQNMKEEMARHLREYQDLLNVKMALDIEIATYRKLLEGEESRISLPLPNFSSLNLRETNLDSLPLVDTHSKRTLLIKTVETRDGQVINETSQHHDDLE

Substance	Jurkat GFP (exNef secretion) (Jurkat T cells) [%]	MDA-MB-231 N-Rh-PE (exosome secretion) (MDA-MB-231 cells) [%]	further results
AVNMAEGIIHDTETKMEEFK [#59, Mortalin scanning peptide 59]	95.49	67.81	
AYKKMASEREGSGSSGTGEQ [#66, Mortalin scanning peptide 66]	92.28	81.79	
DTETKMEEFKDQLPADECNK [#60, Mortalin scanning peptide 60]	98.25	72.32	
EDRRKKERVEAVNMAEGIIH [#58, Mortalin scanning peptide 58]	91.89	68.11	
ENIRQAASSLQOASLKLFEM [#64, Mortalin scanning peptide 64]	95.37	73.49	
GGLSKDDIENMVKNAEKYAE [#56]			Kd (Nef protein): 76.9 µM; kon (Nef protein): 370 M⁻¹ s⁻¹
GSGSSGTGEQKEDQKEEKQ [#67, Mortalin scanning peptide 67]	99.56	89.82	
LKEEISKMRELLARKDSETG [#62]			Kd (Nef protein): 1.9 µM; kon (Nef protein): 1970 M⁻¹ s⁻¹
LLARKDSETGENIRQAASSL [#63, Mortalin scanning peptide 63]	98.02	75.39	
LYEEEMRE [VIM-wt, Vimentin-wt peptide (LYEEEMRE)]			exosome release vs untreated, in words (MDA-MB-231 BC cells): significantly decreased exosome release; p, UT vs. peptide, exosome release (MDA-MB-231 BC cells): < 0.00005; exosome release vs untreated, in words (MCF-7 BC cells): significantly decreased exosome release; p, UT vs. peptide, exosome release (MCF-7 BC cells): < 0.00005
MVKNAEKYAEEDRRKKERVE [#57, Mortalin scanning peptide 57]	96.69	79.73	
QOASLKLFEMAYKKMASERE [#65, Mortalin scanning peptide 65]	96.34	81.65	
VGFPV [SMRwt, ^66Val-Gly-Phe-Pro-Val^70]			Kd [1]: 20.7 µM; kon ([1]; pH 7.4, read-out: ka (Mortalin)): 671 M⁻¹ s⁻¹; Kd [2]: 6.63 µM; kon ([2]; pH 7.4, read-out: ka (Vimentin)): 6410 M⁻¹ s⁻¹

From article PMC12469269, “Investigating SMR Peptide Interactions with Breast Cancer-Associated Proteins” (International Journal of Molecular Sciences, 2025)
